Source: publication PMC3518590 (Journal of inorganic biochemistry, 2012)
Entries after “also recorded” stand apart in the source; their conditions may differ. Read-outs that look alike come from different tables or passages of the source.

Key:
oxymyoglobin (MbO2) = oxymyoglobin (MbO2) (Equus caballus, UniProt P68082); experiment: UV-vis assay of metMb formation from MbO2; assay type: biochemical
[1] = tested on: Yeast ALDH (E.C. 1.2.1.5); experiment: In vitro inhibition of yeast ALDH; assay type: biochemical; details: for IC50: read-out: ALDH inhibition IC50, 37 °C preincubation; for time to complete inhibition of ALDH: inhibitor at ten-fold the IC50
[2] = tested on: Yeast ALDH (E.C. 1.2.1.5); experiment: In vitro reactivation of inhibited yeast ALDH by DTT; assay type: biochemical; details: inhibitor at ten-times IC50, DTT 10 mM
[3] = target: ALDH peptide A286-R307 (AIDWIAAGIFYLNSGQNCTANSR) (Saccharomyces cerevisiae, UniProt P47771); experiment: LC-MS reactivity with ALDH peptide A286-R307
[4] = buffer, pH 7.4
[5] = UV-Vis spectroscopy assay for decomposition in buffer; details: no PLE
[6] = tested on: Yeast ALDH (E.C. 1.2.1.5); details: read-out: ALDH inhibition, reported IC50; ref [24], [25]; cited from earlier work
[7] = buffer; cited from earlier work
[8] = Water solubility in buffer; assay type: physicochemical
[9] = 10 eq. reagent, peptide 10 μM, no PLE, room temperature

Chain of UniProt P47771 (P47771 286-307): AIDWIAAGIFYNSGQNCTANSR
Chain of oxymyoglobin (MbO2) (P68082 whole entry): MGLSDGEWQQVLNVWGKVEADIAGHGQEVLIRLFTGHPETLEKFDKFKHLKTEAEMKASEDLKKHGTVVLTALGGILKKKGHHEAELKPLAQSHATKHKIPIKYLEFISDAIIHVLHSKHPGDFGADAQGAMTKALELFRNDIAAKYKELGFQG

| Compound | IC50 ([1]; absence of PLE) [nM] | ALDH enzyme activity restored by DTT ([2]; no PLE) [%] | Product(s) of reaction with ALDH peptide [3, 9] | time to complete inhibition of ALDH [1] [min] | IC50 [6] [nM] | decomposition t1/2 (comparison value) [7] [h] | also measured |
| --- | --- | --- | --- | --- | --- | --- | --- |
| 4-Nitrosotetrahydro-2H-pyran-4-yl Pivalate [compound 5] | 3300 | 63 | RSSR |  |  |  | rate constant of MbO2 conversion to metMb (oxymyoglobin (MbO2); MbO2 42 μM, compound 84 μM, PLE 9 U/μmol, PBS pH 7.4, 37 °C): 0.0003 s⁻¹; reaction with MbO2 (absorption spectra) (oxymyoglobin (MbO2); absence of PLE): no change in the absorption spectra; IC50 ([1]; presence of PLE (9 U/μmol)): 3500 nM; ALDH enzyme activity restored by DTT ([2]; in the presence of PLE): 43%; Product(s) of reaction with ALDH peptide ([3]; 10 eq. reagent + PLE (9 U/μmol), room temperature): RSSR and sulfinamide; decomposition t1/2 [4]: 32 h; decomposition rate constant k ([5]; 3 % mixture of DMF:PBS (100 mM, pH 7.4), 37 °C): 6e-06 s⁻¹ |
| [Na+].[Na+].[O-][N+]([O-])=NO [AS, Angeli’s salt (NaN2O3, AS)] | 2100 | 46 | sulfinamide-minor; also recorded: dhA -major | ≤ 10 | 1800 |  | Product(s) of reaction with ALDH peptide ([3]; 1000 eq. reagent): sulfinamide |
| O=Nc1ccccc1 [NB, Nitrosobenzene] | 200 | 15 | N-phenyl sulfinamide | ≤ 10 | 2500 |  |  |
| CC(=O)OC1(N=O)CCCCC1 [compound 1] |  |  |  |  |  | 14.8 |  |
| CC(C)(C)C(=O)OC1(N=O)CCCCC1 [compound 2] |  |  |  |  |  | 37.8 |  |
| CC(=O)OC1(N=O)CCOCC1 [compound 4, 4-Nitrosotetrahydro-2H-pyran-4-yl Acetate] |  |  |  |  |  |  | solubility [8]: 1700 µM; decomposition rate constant k ([5]; buffered conditions, PBS 100 mM pH 7.4, 37 °C): 3e-05 s⁻¹ |
